Active and inactive are the calls of the source. No cut-off for these calls is given here.
How the values were obtained:
[1] = biological target: T1, Dual specificity tyrosine-phosphorylation-regulated kinase 1B (Homo sapiens, UniProt Q9Y463); test: Inhibition of NanoLuc-fused human DYRK1B expressed in HEK293T cells using Nano-Glo as substrate incubated for 2 hrs by NanoBRET assay; format: cell-based
Target sequence in this assay (Q9Y463 whole entry, the tested form may be a part): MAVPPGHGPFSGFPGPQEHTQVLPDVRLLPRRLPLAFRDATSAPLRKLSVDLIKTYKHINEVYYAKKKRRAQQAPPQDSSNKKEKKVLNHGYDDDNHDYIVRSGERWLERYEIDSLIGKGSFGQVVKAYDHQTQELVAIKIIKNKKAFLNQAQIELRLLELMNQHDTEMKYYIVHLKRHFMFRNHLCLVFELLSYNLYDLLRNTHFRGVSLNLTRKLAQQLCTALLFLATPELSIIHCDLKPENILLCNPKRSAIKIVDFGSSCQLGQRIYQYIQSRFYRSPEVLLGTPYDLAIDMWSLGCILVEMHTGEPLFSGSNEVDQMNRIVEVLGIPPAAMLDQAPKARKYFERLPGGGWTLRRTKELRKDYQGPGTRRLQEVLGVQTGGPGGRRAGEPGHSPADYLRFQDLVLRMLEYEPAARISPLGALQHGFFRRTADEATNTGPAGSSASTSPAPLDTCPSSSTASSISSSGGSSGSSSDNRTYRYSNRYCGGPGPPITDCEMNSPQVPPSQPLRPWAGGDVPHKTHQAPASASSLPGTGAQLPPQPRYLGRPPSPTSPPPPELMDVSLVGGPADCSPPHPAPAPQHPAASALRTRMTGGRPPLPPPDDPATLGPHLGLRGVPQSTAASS

[2] = biological target: T2, Dual specificity tyrosine-phosphorylation-regulated kinase 1A (Homo sapiens, UniProt Q13627); test: Inhibition of human DYRK1A incubated for 90 mins in presence of ATP by Z-LYTE based FRET assay
[3] = biological target: T1, Dual specificity tyrosine-phosphorylation-regulated kinase 1B; test: Inhibition of human DYRK1B incubated for 130 mins in presence of ATP by ADP-Glo kinase assay
Target sequence in this assay (Q9Y463 whole entry, the tested form may be a part): as above

[4] = biological target: T2, Dual specificity tyrosine-phosphorylation-regulated kinase 1A; test: Inhibition of NanoLuc-fused human DYRK1A expressed in HEK293 cells using Nano-Glo as substrate incubated for 2 hrs by NanoBRET assay; format: cell-based
HeLa [5] = test: Cytotoxicity against human HeLa cells assessed as cell viability at 30 uM incubated for 24 hrs by MTT assay; format: functional; conditions: read-out: Activity
HeLa [6] = test: Cytotoxicity against human HeLa cells assessed as reduction in cell viability at 30 uM incubated for 24 hrs in presence of staurosporine by MTT assay; format: functional, cell-based
[7] = biological target: T3, Serine/threonine-protein kinase PRP4 homolog (Homo sapiens, UniProt Q13523); test: Inhibition of DNA-tagged human PRP4 expressed in Escherichia coli incubated for 1.5 hrs by KINOMEscan assay
[8] = biological target: T3, Serine/threonine-protein kinase PRP4 homolog; test: Inhibition of human PRP4 using casein as substrate at 1 uM incubated for 120 mins in presence of [gamma-33P-ATP] by radiometric scintillation assay
[9] = biological target: T4, Inhibitor of nuclear factor kappa-B kinase subunit alpha (Homo sapiens) (UniProt O15111); test: Inhibition of full length human recombinant IKKalpha expressed in baculovirus infected Sf9 cells at 1 uM incubated for 60 mins in presence of [gamma33P]ATP by microplate scintillation counter relative to control
T4 sequence (whole entry): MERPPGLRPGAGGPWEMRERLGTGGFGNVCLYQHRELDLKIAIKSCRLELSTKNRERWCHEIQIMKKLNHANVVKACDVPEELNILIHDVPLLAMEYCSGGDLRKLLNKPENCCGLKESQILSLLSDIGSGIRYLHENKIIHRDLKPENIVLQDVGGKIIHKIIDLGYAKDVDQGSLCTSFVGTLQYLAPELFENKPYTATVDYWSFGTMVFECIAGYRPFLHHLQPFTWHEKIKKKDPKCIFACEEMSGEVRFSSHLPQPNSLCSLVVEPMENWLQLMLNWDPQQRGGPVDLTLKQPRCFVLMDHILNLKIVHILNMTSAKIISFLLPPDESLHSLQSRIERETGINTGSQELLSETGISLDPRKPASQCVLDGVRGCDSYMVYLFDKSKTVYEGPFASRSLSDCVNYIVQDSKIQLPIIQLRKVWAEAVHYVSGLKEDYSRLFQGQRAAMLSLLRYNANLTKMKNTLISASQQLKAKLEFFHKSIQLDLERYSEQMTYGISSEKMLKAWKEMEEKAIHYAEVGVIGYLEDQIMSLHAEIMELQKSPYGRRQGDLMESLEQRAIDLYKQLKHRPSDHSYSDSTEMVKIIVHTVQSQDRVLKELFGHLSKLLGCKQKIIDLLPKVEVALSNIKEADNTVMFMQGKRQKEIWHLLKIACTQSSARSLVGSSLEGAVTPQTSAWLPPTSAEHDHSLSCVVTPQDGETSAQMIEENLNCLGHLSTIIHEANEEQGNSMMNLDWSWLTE

[10] = biological target: Cyclin-dependent kinase 8 (Homo sapiens) (UniProt P49336); test: Inhibition of N-terminal GST-tagged full length human recombinant CDK8 expressed in Sf9 insect cells at 1 uM incubated for 60 mins in presence of [gamma33P]ATP by microplate scintillation counter relative to control
[11] = biological target: Mitogen-activated protein kinase 7 (Homo sapiens) (UniProt Q13164); test: Inhibition of N-terminal recombinant human ERK5 expressed in Sf9 insect cells at 1 uM incubated for 60 mins in presence of [gamma33P]ATP by microplate scintillation counter relative to control
[12] = biological target: Cyclin-dependent kinase 16 (Homo sapiens) (UniProt Q00536); test: Inhibition of His6-tagged full length human recombinant CDK16 expressed in Sf9 insect cells at 1 uM incubated for 60 mins in presence of [gamma33P]ATP by microplate scintillation counter relative to control
[13] = biological target: Cyclin-dependent kinase 5 (Homo sapiens) (UniProt Q00535); test: Inhibition of N-terminal GST-tagged full length human recombinant CDK5 expressed in Sf9 insect cells at 1 uM incubated for 60 mins in presence of [gamma33P]ATP by microplate scintillation counter relative to control
[14] = biological target: T5, Serine/threonine-protein kinase TAO3 (Homo sapiens) (UniProt Q9H2K8); test: Inhibition of full length human recombinant TAOK3 expressed in baculovirus infected Sf9 cells at 1 uM incubated for 60 mins in presence of [gamma33P]ATP by microplate scintillation counter relative to control
T5 sequence (whole entry): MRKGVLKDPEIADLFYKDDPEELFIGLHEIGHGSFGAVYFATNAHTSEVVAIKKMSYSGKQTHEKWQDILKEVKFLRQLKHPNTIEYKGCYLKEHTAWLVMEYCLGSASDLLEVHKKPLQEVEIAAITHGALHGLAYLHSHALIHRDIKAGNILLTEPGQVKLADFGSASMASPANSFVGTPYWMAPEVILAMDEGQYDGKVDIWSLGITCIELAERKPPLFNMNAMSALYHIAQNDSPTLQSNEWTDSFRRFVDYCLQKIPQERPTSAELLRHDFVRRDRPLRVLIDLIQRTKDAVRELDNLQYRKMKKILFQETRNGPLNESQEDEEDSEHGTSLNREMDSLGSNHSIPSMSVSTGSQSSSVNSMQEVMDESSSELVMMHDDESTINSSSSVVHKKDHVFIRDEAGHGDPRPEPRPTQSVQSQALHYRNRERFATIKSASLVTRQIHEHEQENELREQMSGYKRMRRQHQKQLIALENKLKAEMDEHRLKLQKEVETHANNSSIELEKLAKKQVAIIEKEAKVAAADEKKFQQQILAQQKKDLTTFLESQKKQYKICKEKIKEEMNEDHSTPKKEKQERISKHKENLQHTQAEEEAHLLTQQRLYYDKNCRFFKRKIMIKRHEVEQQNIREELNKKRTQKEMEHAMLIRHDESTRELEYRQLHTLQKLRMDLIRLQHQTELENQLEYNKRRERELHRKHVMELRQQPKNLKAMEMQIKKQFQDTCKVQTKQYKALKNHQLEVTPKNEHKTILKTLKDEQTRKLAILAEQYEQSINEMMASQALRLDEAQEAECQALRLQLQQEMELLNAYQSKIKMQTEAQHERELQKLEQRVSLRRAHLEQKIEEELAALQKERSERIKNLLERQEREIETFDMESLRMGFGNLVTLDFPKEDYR

[15] = biological target: Serine/threonine-protein kinase pim-3 (Homo sapiens) (UniProt Q86V86); test: Inhibition of His6-tagged full length human recombinant PIM3 expressed in Sf9 insect cells at 1 uM incubated for 60 mins in presence of [gamma33P]ATP by microplate scintillation counter relative to control
[16] = Inhibition of His6-tagged full length human recombinant CDK11 expressed in Sf9 insect cells at 1 uM incubated for 60 mins in presence of [gamma33P]ATP by microplate scintillation counter relative to control
[17] = biological target: Serine/threonine-protein kinase pim-1 (Homo sapiens) (UniProt P11309); test: Inhibition of His6-tagged full length human recombinant PIM1 expressed in Sf9 insect cells at 1 uM incubated for 60 mins in presence of [gamma33P]ATP by microplate scintillation counter relative to control
[18] = biological target: Cyclin-dependent kinase 4 (Homo sapiens) (UniProt P11802); test: Inhibition of N-terminal GST-tagged full length human recombinant CDK4 expressed in Sf9 insect cells at 1 uM incubated for 60 mins in presence of [gamma33P]ATP by microplate scintillation counter relative to control
[19] = biological target: T1, Dual specificity tyrosine-phosphorylation-regulated kinase 1B; test: Inhibition of human DYRK1B expressed in Sf9 insect cells at 1 uM incubated for 60 mins in presence of [gamma33P]ATP by microplate scintillation counter relative to control
Target sequence in this assay (Q9Y463 whole entry, looked up, the tested form may be a part): as the sequence (Q9Y463 whole entry, the tested form may be a part) above

[20] = biological target: Cyclin-dependent kinase 6 (Homo sapiens) (UniProt Q00534); test: Inhibition of N-terminal GST-tagged full length human recombinant CDK6 expressed in Sf9 insect cells at 1 uM incubated for 60 mins in presence of [gamma33P]ATP by microplate scintillation counter relative to control
[21] = biological target: T2, Dual specificity tyrosine-phosphorylation-regulated kinase 1A; test: Inhibition of human DYRK1A expressed in Sf9 insect cells at 1 uM incubated for 60 mins in presence of [gamma33P]ATP by microplate scintillation counter relative to control

T3 sequence (Q13523 whole entry): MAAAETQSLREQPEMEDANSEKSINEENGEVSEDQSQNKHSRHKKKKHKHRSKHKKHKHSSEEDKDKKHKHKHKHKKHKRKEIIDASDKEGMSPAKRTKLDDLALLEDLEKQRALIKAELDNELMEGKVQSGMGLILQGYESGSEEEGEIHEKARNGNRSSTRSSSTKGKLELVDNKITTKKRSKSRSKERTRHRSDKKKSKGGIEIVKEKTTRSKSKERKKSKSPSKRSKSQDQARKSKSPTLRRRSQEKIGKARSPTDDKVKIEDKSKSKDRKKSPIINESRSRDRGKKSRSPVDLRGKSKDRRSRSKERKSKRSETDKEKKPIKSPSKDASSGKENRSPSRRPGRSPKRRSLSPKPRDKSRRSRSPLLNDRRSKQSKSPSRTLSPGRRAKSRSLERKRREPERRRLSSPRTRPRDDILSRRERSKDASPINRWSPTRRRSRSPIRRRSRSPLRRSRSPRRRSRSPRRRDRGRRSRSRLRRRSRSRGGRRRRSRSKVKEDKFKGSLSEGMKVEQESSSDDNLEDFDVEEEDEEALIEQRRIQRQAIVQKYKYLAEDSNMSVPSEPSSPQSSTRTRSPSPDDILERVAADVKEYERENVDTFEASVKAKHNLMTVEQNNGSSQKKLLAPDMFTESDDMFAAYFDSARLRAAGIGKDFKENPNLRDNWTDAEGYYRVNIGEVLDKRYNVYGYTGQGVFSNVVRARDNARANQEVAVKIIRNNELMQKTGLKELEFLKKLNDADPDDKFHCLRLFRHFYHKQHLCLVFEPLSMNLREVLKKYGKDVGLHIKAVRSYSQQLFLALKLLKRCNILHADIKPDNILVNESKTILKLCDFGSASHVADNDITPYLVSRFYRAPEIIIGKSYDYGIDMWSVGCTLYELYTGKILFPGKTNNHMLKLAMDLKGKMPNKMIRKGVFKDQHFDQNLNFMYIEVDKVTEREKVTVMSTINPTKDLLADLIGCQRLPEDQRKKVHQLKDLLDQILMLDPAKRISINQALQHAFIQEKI
Sequence of Serine/threonine-protein kinase pim-1 (Homo sapiens) (P11309 whole entry, looked up): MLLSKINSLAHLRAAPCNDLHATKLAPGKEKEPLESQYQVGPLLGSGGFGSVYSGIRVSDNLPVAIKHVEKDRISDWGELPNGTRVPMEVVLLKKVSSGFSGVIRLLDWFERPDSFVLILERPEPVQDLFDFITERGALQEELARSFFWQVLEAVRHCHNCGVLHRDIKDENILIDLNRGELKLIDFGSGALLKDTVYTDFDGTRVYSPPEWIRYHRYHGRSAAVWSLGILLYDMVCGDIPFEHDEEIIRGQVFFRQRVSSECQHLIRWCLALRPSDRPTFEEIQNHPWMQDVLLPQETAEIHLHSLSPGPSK
Sequence of Cyclin-dependent kinase 4 (Homo sapiens) (P11802 whole entry): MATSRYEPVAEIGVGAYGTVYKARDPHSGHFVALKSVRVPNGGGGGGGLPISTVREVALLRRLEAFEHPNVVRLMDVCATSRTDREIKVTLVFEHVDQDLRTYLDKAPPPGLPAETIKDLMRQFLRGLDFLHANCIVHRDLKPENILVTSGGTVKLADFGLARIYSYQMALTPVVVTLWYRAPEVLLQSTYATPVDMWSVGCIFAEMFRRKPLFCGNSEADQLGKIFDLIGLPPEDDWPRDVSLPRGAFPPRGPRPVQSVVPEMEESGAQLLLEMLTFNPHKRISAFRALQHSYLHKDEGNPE
Sequence of Cyclin-dependent kinase 8 (Homo sapiens) (P49336 whole entry): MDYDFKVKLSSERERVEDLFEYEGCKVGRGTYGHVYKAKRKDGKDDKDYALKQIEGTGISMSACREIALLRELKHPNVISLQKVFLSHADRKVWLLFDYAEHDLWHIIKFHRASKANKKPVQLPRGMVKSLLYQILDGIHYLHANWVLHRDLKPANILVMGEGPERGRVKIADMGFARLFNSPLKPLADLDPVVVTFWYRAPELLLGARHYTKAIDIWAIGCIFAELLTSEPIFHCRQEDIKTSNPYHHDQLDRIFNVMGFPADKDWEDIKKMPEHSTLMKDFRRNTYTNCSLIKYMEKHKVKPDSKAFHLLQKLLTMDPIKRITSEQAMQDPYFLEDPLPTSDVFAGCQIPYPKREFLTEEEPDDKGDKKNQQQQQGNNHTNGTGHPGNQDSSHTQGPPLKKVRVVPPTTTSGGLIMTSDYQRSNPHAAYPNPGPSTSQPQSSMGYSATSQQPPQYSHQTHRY
Sequence of Cyclin-dependent kinase 5 (Homo sapiens) (Q00535 whole entry, looked up): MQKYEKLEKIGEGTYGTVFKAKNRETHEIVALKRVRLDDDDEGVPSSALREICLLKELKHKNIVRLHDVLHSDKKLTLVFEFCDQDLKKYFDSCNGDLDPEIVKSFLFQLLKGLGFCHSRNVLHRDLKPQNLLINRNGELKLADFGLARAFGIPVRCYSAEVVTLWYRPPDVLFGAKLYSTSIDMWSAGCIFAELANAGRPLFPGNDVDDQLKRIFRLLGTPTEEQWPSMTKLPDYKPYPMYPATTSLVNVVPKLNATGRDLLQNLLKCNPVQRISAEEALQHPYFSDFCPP
Sequence of Cyclin-dependent kinase 6 (Homo sapiens) (Q00534 whole entry): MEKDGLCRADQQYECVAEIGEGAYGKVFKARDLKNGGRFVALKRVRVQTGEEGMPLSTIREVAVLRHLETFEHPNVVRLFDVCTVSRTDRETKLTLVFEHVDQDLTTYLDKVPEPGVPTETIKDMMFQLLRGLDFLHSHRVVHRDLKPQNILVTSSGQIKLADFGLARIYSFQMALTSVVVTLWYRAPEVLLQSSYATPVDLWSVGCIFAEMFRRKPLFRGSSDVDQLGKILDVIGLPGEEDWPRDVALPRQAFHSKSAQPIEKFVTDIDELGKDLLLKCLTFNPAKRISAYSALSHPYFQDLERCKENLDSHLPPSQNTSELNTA
Sequence of Cyclin-dependent kinase 16 (Homo sapiens) (Q00536 whole entry): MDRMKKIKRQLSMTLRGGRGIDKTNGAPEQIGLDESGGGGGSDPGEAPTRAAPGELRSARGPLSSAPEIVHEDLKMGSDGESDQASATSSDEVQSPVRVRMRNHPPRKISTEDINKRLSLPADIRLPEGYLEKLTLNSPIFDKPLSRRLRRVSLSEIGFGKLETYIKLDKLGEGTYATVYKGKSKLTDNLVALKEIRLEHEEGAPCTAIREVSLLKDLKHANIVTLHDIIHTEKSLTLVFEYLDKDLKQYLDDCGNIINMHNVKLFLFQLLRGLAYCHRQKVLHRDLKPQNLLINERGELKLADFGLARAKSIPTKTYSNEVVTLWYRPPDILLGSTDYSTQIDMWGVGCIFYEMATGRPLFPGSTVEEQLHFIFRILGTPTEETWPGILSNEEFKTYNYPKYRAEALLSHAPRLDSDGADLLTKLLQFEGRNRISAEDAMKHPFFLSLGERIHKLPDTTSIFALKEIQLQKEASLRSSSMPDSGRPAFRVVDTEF

Compound | IC50 [1] [nM] | Ki [2] [nM] | Ki [3] [nM] | IC50 [4] [nM] | other results
NC(=O)c1cc2c(-c3ccc(C(=O)NCc4ccccc4)s3)cccc2s1 | 4300 | 56.9 | 278 | 4600 | 
NC(=O)c1cc2c(-c3ccc(C(=O)NCc4cccc(N)c4)s3)ccc(F)c2s1 |  | 491 | 2310 |  | 
NC(=O)c1cc2c(-c3ccc(C(=O)NCc4cccc(N)c4)s3)c(Cl)ccc2s1 |  | 93.4 | 1450 |  | 
NC(=O)c1cc2c(-c3ccc(C(=O)NCc4cccc(O)c4)s3)cccc2s1 |  | 73 | 370 |  | 
NC(=O)c1cc2c(-c3ccc(C(=O)NCc4ccccc4N)s3)cccc2s1 | 800 | 67.8 | 238 | 1100 | viability at 30 µM (HeLa [5]): > 75%; Activity (HeLa [6]): Active; Ki [7]: 1300 nM; inhibition [8]: 38%
NC(=O)c1cc2c(-c3ccc(C(=O)NCC4CC4)s3)cccc2s1 |  | 95.1 | 980 |  | 
NC(=O)c1cc2c(-c3ccc(C(=O)NCc4ccc(N)cc4)s3)cccc2s1 | 3600 | 26.8 | 187 | 2700 | 
NC(=O)c1cc2c(-c3ccc(C(=O)NCc4ccnc(Cl)c4)s3)cccc2s1 | 1800 | 85.9 | 642 | 2000 | inhibition [9]: > 35%; inhibition [10]: > 35%; inhibition [11]: > 35%; inhibition [12]: > 35%; inhibition [13]: > 35%; inhibition [14]: > 35%; inhibition [15]: > 35%; inhibition [16]: > 35%; inhibition [17]: > 35%; inhibition [18]: > 35%; inhibition [19]: > 35%; inhibition [20]: > 35%; inhibition [21]: > 35%
NC(=O)c1cc2c(-c3ccc(C(=O)NCc4ccccc4O)s3)c(Cl)ccc2s1 |  | 85.3 | 1180 |  | 
NC(=O)c1cc2c(-c3ccc(C(=O)NCc4cccc(O)c4)s3)c(Cl)ccc2s1 |  | 105 | 1130 |  | 
NC(=O)c1cc2c(-c3ccc(C(=O)NCc4cccc(Cl)c4)s3)cccc2s1 |  | 359 | 4400 |  | 
NC(=O)c1cc2c(-c3ccc(C(=O)N[C@H](CO)Cc4ccccc4)s3)cccc2s1 |  | 101 | 730 |  | 
NC(=O)c1cc2c(-c3ccc(C(=O)NCc4ccccc4O)s3)cccc2s1 | 3400 | 9.9 | 65.3 | 4400 | 
NC(=O)c1cc2c(-c3ccc(C(=O)NC4CC4)s3)cccc2s1 |  | 160 | 670 |  | 
NC(=O)c1cc2c(-c3ccc(C(=O)NCCn4cc(CO)nn4)s3)cccc2s1 |  | 118 | 448 |  | 
NC(=O)c1cc2c(-c3ccc(C(=O)NC4CCOCC4)s3)cccc2s1 |  | 178 | 1100 |  | 
NC(=O)c1cc2c(-c3ccc(C(=O)NCc4cccc(N)c4)s3)cccc2s1 |  | 119 | 660 |  | 
NC(=O)c1cc2c(-c3cc(N)c(C(=O)NC4CC4)s3)cccc2s1 |  | 89.5 | 814 |  | 
NC(=O)c1cc2c(-c3ccc(C(=O)NCc4ccccc4N)s3)c(Cl)ccc2s1 | 700 | 36.2 | 577 | 1700 | 

Source: ChEMBL document CHEMBL5143696, “Discovery of novel benzothiophene derivatives as potent and narrow spectrum inhibitors of DYRK1A and DYRK1B” (Bioorg Med Chem Lett, 2022)
